Test results taken from patent publication US8268823B2, “Medical use of triazine derivatives” (University of Greenwich, priority 2006, dated 2012).
Several values for one entry are separate records, joined by “and”; a condition that tells them apart may be missing. Equal entries are not always repeated. Structures can show the parent of a compound that is named as a salt. Where two headings read alike, the source gives them in different places.

Tests used:
sodium channel [1] = test: veratrine-evoked uptake of [14C]guanidine into rat forebrain synaptosomes ([14C]guanidine flux); type: biochemical
Method: The screening strategy is designed to select compounds with appropriate sodium channel blocking activity and low side effect liability. To this end all compounds are processed through the primary sodium channel assay (veratrine-evoked uptake of [^14C]guanidine into rat forebrain synaptosomes) and IC50 values computed from generated concentration-effect curves.
Synaptosomes (heavy and light mitochondrial fraction containing synaptosomes) were prepared by transferring the forebrain (of known wet weight) to a glass Potter vessel to which 9 volumes ice-cold 0.25M sucrose had been added and homogenising, using a teflon pestle, by 8 ‘up and down strokes’ of a Braun Potter S motor driven homogeniser set to 900 rpm. The resulting homogenate was centrifuged at 1036×g at 4° for 10 min and the supernatant collected. The remaining pellet was resuspended, as above, in fresh ice-cold 0.25M sucrose and the centrifugation step repeated. The supernatant fractions were pooled and centrifuged at 40,000×g (average) at 4° for 15 min and the resulting pellet resuspended in the appropriate assay buffer at a concentration of 20-25 mg wet weight per ml appropriate assay buffer.
Both assays were carried out using 14 ml polypropylene test tubes to which a range of concentrations of the compounds under test were added.
Compounds under test were pre-incubated for 10 min at 30° in incubation buffer (50 mM pH 7.4 HEPES (adjusted to pH 7.4 with Tris base), 130 mM choline chloride, 5.5 mM D-glucose, 0.8 mm MgSO4 and 5 mM KCl) containing 7.5 mg original wet weight of tissue and 100 μg veratrine HCl in a final volume of 0.5 ml. […] A further 2×5 ml of ice-cold wash buffer was added to each tube and the vacuum filtration step repeated. The GF/C glass fibre filters were transferred to minivials and 4 ml Picofluor^40 liquid scintillant added using a Brandel™ deposit/dispense system. Radioactivity was measured using a Beckman Liquid Scintillation Counter.
(§1) Data are presented as mean±sem of number of experiments indicated in brackets.

sodium channel [2] = type: binding, rat
[3] = tested on: 0.4 mm slices of rat hippocampus; test: hippocampal slice assay: ATP after iodoacetate metabolic insult; settings: for Emax: read-out: Max Protection (% v TTX)
hERG potassium channel [4] = target: T1, hERG potassium channel (Homo sapiens, UniProt Q12809); test: inhibition of binding of [3H]astemizole to cell membranes expressing hERG
T1 sequence (Q12809 whole entry): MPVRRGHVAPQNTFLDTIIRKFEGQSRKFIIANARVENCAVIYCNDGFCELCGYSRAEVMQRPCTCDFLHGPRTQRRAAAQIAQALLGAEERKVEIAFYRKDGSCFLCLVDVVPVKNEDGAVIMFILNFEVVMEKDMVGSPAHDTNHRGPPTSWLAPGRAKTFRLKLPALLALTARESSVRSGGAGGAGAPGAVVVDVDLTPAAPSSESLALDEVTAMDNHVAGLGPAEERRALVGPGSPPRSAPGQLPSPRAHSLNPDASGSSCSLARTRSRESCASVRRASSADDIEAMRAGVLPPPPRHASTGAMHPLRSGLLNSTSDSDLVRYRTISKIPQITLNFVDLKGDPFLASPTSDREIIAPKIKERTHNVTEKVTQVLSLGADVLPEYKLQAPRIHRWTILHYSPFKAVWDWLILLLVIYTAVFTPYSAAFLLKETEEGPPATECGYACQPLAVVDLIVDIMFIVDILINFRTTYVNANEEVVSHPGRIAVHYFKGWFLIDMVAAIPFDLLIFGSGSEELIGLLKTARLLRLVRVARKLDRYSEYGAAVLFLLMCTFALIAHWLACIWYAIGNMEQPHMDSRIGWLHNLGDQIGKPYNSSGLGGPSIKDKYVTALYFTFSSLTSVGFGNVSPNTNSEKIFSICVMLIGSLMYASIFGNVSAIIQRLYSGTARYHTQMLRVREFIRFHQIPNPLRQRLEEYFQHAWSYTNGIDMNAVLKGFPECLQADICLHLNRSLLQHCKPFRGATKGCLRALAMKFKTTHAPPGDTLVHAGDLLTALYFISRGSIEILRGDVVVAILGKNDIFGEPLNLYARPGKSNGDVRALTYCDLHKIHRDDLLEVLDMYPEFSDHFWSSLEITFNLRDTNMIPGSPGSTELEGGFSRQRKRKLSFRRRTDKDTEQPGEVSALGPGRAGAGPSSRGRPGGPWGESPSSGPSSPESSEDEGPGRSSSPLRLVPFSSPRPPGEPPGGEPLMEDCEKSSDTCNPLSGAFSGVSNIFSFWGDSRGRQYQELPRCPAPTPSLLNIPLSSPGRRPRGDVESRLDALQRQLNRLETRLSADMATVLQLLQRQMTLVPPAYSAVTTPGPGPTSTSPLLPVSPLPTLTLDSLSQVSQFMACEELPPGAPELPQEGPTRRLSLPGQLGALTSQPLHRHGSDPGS

[5] = target: T2, DiHydroFolate Reductase (DHFR) (Rattus norvegicus, UniProt Q920D2); test: inhibition of binding of [3H]methotrexate to rat liver homogenate supernatant; settings: for IC50: rat liver supernatant
T2 construct: from tissue; host or cells: rat liver homogenate supernatant (47,500 x g)
T2 sequence (Q920D2 1-187): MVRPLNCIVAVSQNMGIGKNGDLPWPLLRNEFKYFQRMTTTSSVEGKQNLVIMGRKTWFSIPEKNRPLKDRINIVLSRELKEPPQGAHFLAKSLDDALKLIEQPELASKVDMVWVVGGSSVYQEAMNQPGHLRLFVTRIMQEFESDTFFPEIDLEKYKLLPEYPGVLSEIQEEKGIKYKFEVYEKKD
Method: All steps were carried out at 4° (or on ice). Freshly dissected rat liver was dissected into 0.25M ice-cold Sucrose and subsequently homogenised (U-turrax) in 50 mM pH 6.0 phosphate buffer (10 ml/g tissue) containing 15 mM Dithiothreitol. The resulting homogenate was centrifuged @ 47,500×g for 20 min and supernatant (filtered through cotton wool to remove fatty lumps) stored @-80° before use (Rothenberg et al).
The binding reaction was stopped by the addition of 50 μl of a charcoal suspension (consisting of charcoal, Bovine Serum Albumin and Dextran present in a weight ratio of 100:4:1 suspended in 50 mM pH 6.0 phosphate buffer. Samples were vortexed, allowed to stand for 2 minutes and charcoal was precipitated by microcentrifugation @ full speed for 5 min. Aliquots of clear supernatant were transferred to counting vials containing liquid scintillant for measurement of radioactivity using Liquid Scintillation Spectroscopy.
Percentage inhibition values were calculated by comparison to this value.
as §1

hERG potassium channel [6] = target: T1, hERG potassium channel; test: in vitro
[7] = Table 1, mean ± sem (n), read-out: [14C] guanidine uptake (synaptosomes), mean IC50
[8] = Table 3, rat forebrain synaptosomes, read-out: [14C]guanidine flux Mean (IC50: μM)
[9] = Table 5, read-out: [14C]guanidine flux IC50
[10] = Table 1, synaptosomes, mean ± sem (n), read-out: [3H]BTX-B binding (synaptosomes), mean IC50
[11] = Table 4, tissue prep'n Homogenate, read-out: [3H]BTX-B binding Mean (IC50: μM)
[12] = Table 4, tissue prep'n Synaptosomes, read-out: [3H]BTX-B binding Mean (IC50: μM)
[13] = Table 5, Synaptosome data, read-out: [3H]BTX-B IC50
[14] = Rattus norvegicus, read-out: EC50 (max set @ 100)
[15] = Rattus norvegicus, read-out: hippocampal slice EC50 (μM)
[16] = read-out: [3H]methotrexate binding Inhibition (% @ assay conc'n), assay concentration 10 μM
[17] = read-out: [3H]methotrexate binding Inhibition (% @ assay conc'n), assay concentration 99 μM
[18] = hERG / [3H]BTX-B selectivity, ratio of extrapolated hERG IC50 to [3H]BTX-B IC50 (synaptosomes)
[19] = hERG / [14C]guanidine flux selectivity, ratio of extrapolated hERG IC50 to [14C]guanidine flux IC50

Cn1nc(-c2ccc(Cl)cc2Cl)c(N)nc1=N (as salt: methanesulfonate) [Example 45, 5(3)-Amino-6-(2,4-dichlorophenyl)-2,3(2,5)-dihydro-3(5)-imino-2-methyl-1,2,4-triazine methanesulfonate]
melting point: 283 to 285 °C

Cn1nc(-c2ccccc2)c(N)nc1=N (as salt: methanesulfonate) [Example 46, 5(3)-Amino-6-phenyl-2,3(2,5)-dihydro-3(5)-imino-2-methyl-1,2,4-triazine methanesulfonate]
melting point: 230 to 232 °C

CCn1nc(-c2ccccc2)c(N)nc1=N (as salt: methanesulfonate) [Example 47, 5(3)-Amino-6-phenyl-2,3(2,5)-dihydro-3(5)-imino-2-ethyl-1,2,4-triazine methanesulfonate]
melting point: 230 to 232 °C

Cn1nc(-c2cc(Cl)ccc2Cl)c(N)nc1=N (as salt: methanesulfonate) [Example 48, 5(3)-Amino-6-(2,5-dichlorophenyl)-2,3(2,5)-dihydro-3(5)-imino-2-methyl-1,2,4-triazine methanesulfonate]
melting point: 297 to 298 °C

Nc1nnc(-c2cccc(Cl)c2Cl)c(N)n1 [Example 1, 5(3)-amino-6-(2,3-dichlorophenyl)-2,3(2,5)-dihydro-3(5)-imino-1,2,4-triazine, reference compound]
IC50 (sodium channel [1]; [7]): 186 ± 26.5 µM
IC50 (sodium channel [1]; [8]): 209 µM
IC50 (sodium channel [1]; [9]): 209 µM
pIC50 (uptake of [14C]guanidine) (sodium channel [1]; Table 8, listed as Lamotrigine): 3.75 ± 0.13 and 3.68 ± 0.27
IC50 (sodium channel [1]; Table 8, listed as Lamotrigine, read-out: IC50 (μM) (uptake of [14C]guanidine)): 178 µM and 209 µM
IC50 (sodium channel [2]; [10]): 82.6 ± 2.3 µM
IC50 (sodium channel [2]; [11]): 97.9 µM
IC50 (sodium channel [2]; [12]): 76.6 µM
IC50 (sodium channel [2]; [13]): 76.6 µM
EC50 [3, 14]: 33.1 µM
Emax ([3]; Rattus norvegicus): 79%
EC50 [3, 15]: 30.2 µM

Cn1nc(-c2cccc(Cl)c2Cl)c(N)nc1=N [Example 2, 5-amino-6-(2,3-dichlorophenyl)-2,3-dihydro-3-imino-2-methyl-1,2,4-triazine]
IC50 (sodium channel [1]; [7]): 35.9 ± 1.8 µM
IC50 (sodium channel [1]; [8]): 35.9 µM
IC50 (sodium channel [1]; [9]): 35.9 µM
IC50 (hERG potassium channel [4]): 73.3 µM
IC50 (sodium channel [2]; [10]): 7.4 ± 0.4 µM
IC50 (sodium channel [2]; [11]): 2.5 µM
IC50 (sodium channel [2]; [12]): 7.2 µM
IC50 (sodium channel [2]; [13]): 7.2 µM
EC50 [3, 14]: 37.4 µM
Emax ([3]; Rattus norvegicus): 98 ± 5%
EC50 [3, 15]: 36.3 µM
inhibition at 10 µM [5, 16]: 0%
inhibition at 99 µM [5, 17]: -3%
inhibition at 10 µM (hERG potassium channel [6]): 12%
selectivity ratio (hERG potassium channel [6]; [18]): 10.2
selectivity ratio (hERG potassium channel [6]; [19]): 2

CCn1nc(-c2cccc(Cl)c2Cl)c(N)nc1=N [Example 3, 5(3)-Amino-6-(2,3-dichlorophenyl)-2,3(2,5)-dihydro-3(5)-imino-2-ethyl-1,2,4-triazine]
IC50 (sodium channel [1]; [8]): 6.4 µM
IC50 (sodium channel [2]; [11]): 0.9 µM
IC50 (sodium channel [2]; [12]): 3.7 µM
Max Protection (% v TTX) ([3]; compared with the effect of 1 μM TTX = 100% protection): 87.0 % v TTX
EC50 ([3]; read-out: EC50 (max set @ 100), data re-computed setting max @ 100%): 20 µM
EC50 ([3]; read-out: hippocampal slice EC50, protection of ATP after iodoacetate): 16 µM
[3H]methotrexate binding Inhibition (% @ assay conc'n) ([5]; assay concentration 10 μM): 0%
[3H]methotrexate binding Inhibition (% @ assay conc'n) ([5]; assay concentration 99 μM): 1%

CCCn1nc(-c2cccc(Cl)c2Cl)c(N)nc1=N [Example 6, 5(3)-Amino-6-(2,3-dichlorophenyl)-2,3(2,5)-dihydro-3(5)-imino-2-propyl-1,2,4-triazine]
IC50 (sodium channel [1]; [8]): 2.8 µM
IC50 (sodium channel [1]; [9]): 4.8 µM
IC50 (hERG potassium channel [4]): 2.8 µM
IC50 (sodium channel [2]; [11]): 0.5 µM
IC50 (sodium channel [2]; [12]): 3.6 µM
IC50 (sodium channel [2]; [13]): 2.2 µM
EC50 [3, 14]: 14.5 µM
Emax ([3]; Rattus norvegicus): 81 ± 27%
EC50 [3, 15]: 10.4 µM
inhibition at 10 µM [5, 16]: 0%
inhibition at 99 µM [5, 17]: 2%
inhibition at 10 µM (hERG potassium channel [6]): 78%
selectivity ratio (hERG potassium channel [6]; [18]): 1.3
selectivity ratio (hERG potassium channel [6]; [19]): 0.6

CC(C)Cn1nc(-c2cccc(Cl)c2Cl)c(N)nc1=N [Example 7, 5(3)-Amino-6-(2,3-dichlorophenyl)-2,3(2,5)-dihydro-3(5)-imino-2-isobutyl-1,2,4-triazine methanesulfonate]
IC50 (sodium channel [1]; [8]): 2.9 µM
IC50 (sodium channel [2]; [12]): 1 µM
Emax ([3]; Rattus norvegicus): 47 ± 3%
EC50 [3, 15]: 1.3 µM
inhibition at 10 µM [5, 16]: -4%
inhibition at 99 µM [5, 17]: -2%

CCCCn1nc(-c2cccc(Cl)c2Cl)c(N)nc1=N [Example 8, 5(3)-Amino-6-(2,3-dichlorophenyl)-2,3(2,5)-dihydro-3(5)-imino-2-butyl-1,2,4-triazine]
IC50 (sodium channel [1]; [8]): 2.1 µM
IC50 (sodium channel [2]; [12]): 1.7 µM
Emax ([3]; Rattus norvegicus): 46%
EC50 [3, 15]: 10 µM
inhibition at 10 µM [5, 16]: -4%
inhibition at 99 µM [5, 17]: -2%

N=c1nc(N)c(-c2cccc(Cl)c2Cl)nn1Cc1ccccc1 [Example 9, 5(3)-Amino-6-(2,3-dichlorophenyl)-2,3(2,5)-dihydro-3(5)-imino-2-phenylmethyl-1,2,4-triazine hemi-methanesulfonate]
IC50 (sodium channel [1]; [8]): 4.8 µM
IC50 (sodium channel [2]; [12]): 2.2 µM
EC50 [3, 15]: > 30 µM
inhibition at 10 µM [5, 16]: 2%
inhibition at 99 µM [5, 17]: -4%

Nc1nnc(-c2cc(Cl)cc(Cl)c2Cl)c(N)n1 [Example 31, 6-(2,3,5-trichlorophenyl)-1,2,4-triazine-3,5-diamine]
IC50 (sodium channel [1]; [8]): 16.2 µM
IC50 (sodium channel [1]; [9]): 16.2 µM
IC50 (hERG potassium channel [4]): 66.9 µM
IC50 (sodium channel [2]; [12]): 21.9 µM
IC50 (sodium channel [2]; [13]): 21.9 µM
EC50 [3, 14]: 2.2 µM
Emax ([3]; Rattus norvegicus): 91 ± 4%
EC50 [3, 15]: 1.8 µM
IC50 [5]: 41 ± 4.7 µM
inhibition at 10 µM (hERG potassium channel [6]): 13%
selectivity ratio (hERG potassium channel [6]; [18]): 3.1
selectivity ratio (hERG potassium channel [6]; [19]): 4.1

Cn1nc(-c2cc(Cl)cc(Cl)c2Cl)c(N)nc1=N [Example 32, 5(3)-Amino-6-(2,3,5-trichlorophenyl)-2,3(2,5)-dihydro-3(5)-imino-2-methyl-1,2,4-triazine]
IC50 (sodium channel [1]; [8]): 6.4 µM
IC50 (sodium channel [1]; [9]): 6.4 µM
IC50 (hERG potassium channel [4]): 20.3 µM
IC50 (sodium channel [2]; [12]): 1.9 µM
IC50 (sodium channel [2]; [13]): 1.9 µM
Emax ([3]; Rattus norvegicus): 65 ± 7%
EC50 [3, 15]: 5.9 µM
IC50 [5]: > 250 µM
inhibition at 10 µM (hERG potassium channel [6]): 33%
selectivity ratio (hERG potassium channel [6]; [18]): 10.7
selectivity ratio (hERG potassium channel [6]; [19]): 3.2

CCCn1nc(-c2cc(Cl)cc(Cl)c2Cl)c(N)nc1=N [Example 34, 5(3)-Amino-6-(2,3,5-trichlorophenyl)-2,3(2,5)-dihydro-3(5)-imino-2-propyl-1,2,4-triazine]
IC50 (sodium channel [1]; [8]): 1.3 µM
IC50 (sodium channel [1]; [9]): 1.3 µM
IC50 (hERG potassium channel [4]): 6.1 µM
IC50 (sodium channel [2]; [12]): 0.5 µM
IC50 (sodium channel [2]; [13]): 0.5 µM
Emax ([3]; Rattus norvegicus): 37%
EC50 [3, 15]: 9.8 µM
IC50 [5]: > 300 µM
inhibition at 10 µM (hERG potassium channel [6]): 62%
selectivity ratio (hERG potassium channel [6]; [18]): 12.3
selectivity ratio (hERG potassium channel [6]; [19]): 4.7

CN1CCN(c2ncc(-c3cc(Cl)cc(Cl)c3Cl)c(N)n2)CC1 [Sipatrigine, reference compound]
IC50 (hERG potassium channel [4]): 1.5 µM
EC50 [3, 14]: 12.6 µM
Emax ([3]; Rattus norvegicus): 90%
EC50 [3, 15]: 10.7 µM
inhibition at 10 µM [5, 16]: 0%
inhibition at 198 µM ([5]; read-out: [3H]methotrexate binding Inhibition (% @ assay conc'n), assay concentration 198 μM): -6%
inhibition at 10 µM (hERG potassium channel [6]; hERG % inhibition @ 10 μM): 87%
